Test results: PubChem BioAssay AID743442 (Broad Institute, 2014)
Activity calls are given as the source filed them.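 The calls were made as follows: active = cell-killing curve, signal falling, whose fitted AC50 is at most twice the top tested dose; inconclusive = flat fit with a moderate signal drop, or a poor fit; inactive = the rest.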

System: not listed separately
Assay: ATP-based viability loss in HEK293T cells – cell-based, CellTiter-Glo luminescence, dry powder samples, set 14, cytotoxicity control, dose response (AID 743442)
Conditions: HEK293T viability, ATP luminescence (CellTiter-Glo), 72 h; at 12 µM (top of the series)

SMILES	activity change, negative = cytotoxicity
CCN1CCCC1CNC(=O)CSc1c2c(nc3ccc(Cl)cc13)CCCC2 (stereo not given)	-4.32% (inactive)

Same assay, conditions: HEK293T viability, ATP luminescence (CellTiter-Glo), 72 h; at 26 µM (top of the series)

SMILES	activity change, negative = cytotoxicity
COc1ccc(NC(=O)CSc2c3c(nc4ccc(Cl)cc24)CCCC3)cc1	-8.96% (inactive)
O=C(COc1ccccc1C(=O)NCc1ccccc1)Nc1ccccc1	-5.85% (inactive)
Cc1cccc(CCNC(=O)CSc2c3c(nc4ccc(Cl)cc24)CCCC3)c1	-5.98% (inactive)
COCCNC(=O)CSc1c2c(nc3ccc(Cl)cc13)CCCC2	-7.42% (inactive)
CCOC(=O)C1CCN(C(=O)c2ccc(OCC(=O)N3CCOCC3)c(OC)c2)CC1	-7.89% (inactive)
O=C(CSc1c2c(nc3ccc(Cl)cc13)CCCC2)N1CCOCC1	-5.19% (inactive)
O=C(CSc1c2c(nc3ccc(Cl)cc13)CCCC2)NCCN1CCN(Cc2ccccc2)CC1	-10.3% (inactive)
COC(=O)CCCN(C)C(=O)c1ccc(OCC(=O)Nc2cccc(OC)c2)cc1	-4.85% (inactive)
CCCNC(=O)CSc1c2c(nc3ccc(Cl)cc13)CCCC2	-1.94% (inactive)
Cc1ccc(NC(=O)COc2ccccc2C(=O)NCCN(C)C)cc1	-1.02% (inactive)
O=C(CSc1c2c(nc3ccc(Cl)cc13)CCCC2)NCc1cccnc1	-3.63% (inactive)
Cc1ccc(CNC(=O)CSc2c3c(nc4ccc(Cl)cc24)CCCC3)cc1	-7.44% (inactive)
Cc1ccc(CNC(=O)CSc2c3c(nc4cc(Cl)ccc24)CCCC3)o1	-11.4% (inactive)
O=C(CSc1c2c(nc3ccc(Cl)cc13)CCCC2)N1CCC(N2CCCCC2)CC1	-3.26% (inactive)
O=C(CSc1c2c(nc3ccc(Cl)cc13)CCCC2)NCc1ccccn1	-4.85% (inactive)
O=C(CSc1c2c(nc3ccc(Cl)cc13)CCCC2)NCc1ccco1	-6.1% (inactive)
O=C(CSc1c2c(nc3cc(Cl)ccc13)CCCC2)N(Cc1ccco1)C1CCCC1	-4.09% (inactive)
CN(C)c1ccc(NC(=O)COc2ccccc2C(=O)N2CCOCC2)cc1	-0.871% (inactive)
O=C(COc1ccccc1C(=O)NCCOc1ccc(Cl)cc1)Nc1cccc(Cl)c1	-30.7% (inactive)
COc1ccc(N(Cc2cccs2)C(=O)COc2ccccc2C(=O)Nc2ccccc2)cc1	-7.68% (inactive)
O=C(CSc1c2c(nc3ccc(Cl)cc13)CCCC2)NCc1ccc(F)cc1	-14.3% (inactive)

SMILES	activity change, negative = cytotoxicity
CN(C(=O)COc1ccccc1C(N)=O)c1ccccc1	-5.5% (inactive)
CC1(C)CC(NC(=O)c2ccc(OCC(=O)Nc3cccc(C(F)(F)F)c3)cc2)CC(C)(C)N1	-24.7% (inactive)
O=C(CSc1c2c(nc3ccc(Cl)cc13)CCCC2)N1CCNC1=O	-2.06% (inactive)
O=C(COc1ccc(C(=O)N2CCN(C(=O)C3CC3)CC2)cc1)Nc1cccc(C(F)(F)F)c1	-7.18% (inactive)
COc1cc(C(=O)NCCCN(C)C)ccc1OCC(=O)Nc1cccc(C(F)(F)F)c1	-18.3% (inactive)
NC(=O)C1CCN(C(=O)c2ccc(OCC(=O)Nc3cccc(C(F)(F)F)c3)cc2)CC1	-5.23% (inactive)
O=C(CSc1c2c(nc3ccc(Cl)cc13)CCCC2)NC1CCCC1	-7.43% (inactive)
COc1ccc(OCCNC(=O)c2ccccc2OCC(=O)Nc2ccc(NC(C)=O)cc2)cc1	-1.7% (inactive)
CCN(CC)C(=O)CSc1c2c(nc3ccc(Cl)cc13)CCCC2	0.809% (inactive)
Cn1cc(SCC(=O)NCc2ccco2)c2ccccc21	-10.8% (inactive)
O=C(COc1ccc(C(=O)N2CCC2)cc1)Nc1cccc(C(F)(F)F)c1	-6.82% (inactive)
COc1ccc(CNC(=O)CSc2c3c(nc4ccc(Cl)cc24)CCCC3)cc1	-6.81% (inactive)
CN(CCOc1ccccc1)C(=O)c1ccc(OCC(=O)Nc2cccc(C(F)(F)F)c2)cc1	-0.662% (inactive)
CN(C(=O)COc1ccc(Cl)cc1C(N)=O)c1ccccc1	1.16% (inactive)
O=C(CSc1c2c(nc3ccc(Cl)cc13)CCCC2)NCc1ccc2c(c1)OCO2	0.001% (inactive)
O=C(CSc1c2c(nc3ccc(Cl)cc13)CCCC2)NCCN1CCOCC1	-9.3% (inactive)
O=C(CSc1c2c(nc3ccc(Cl)cc13)CCCC2)Nc1ccccc1	-10.7% (inactive)
O=C(O)CSc1c2c(nc3cc(C(=O)NCc4cccs4)ccc13)CCCC2	-5.37% (inactive)
CCOc1ccc(NC(=O)COc2ccc(C(=O)N3CCC(C(N)=O)CC3)cc2OC)cc1	-5.36% (inactive)
CN(C(=O)COc1ccccc1C(=O)Nc1ccccc1)c1ccccc1	-12.4% (inactive)
O=C(CSc1cccc2cccnc12)NCc1ccco1	-4.54% (inactive)

SMILES	activity change, negative = cytotoxicity
O=C(CSc1c2c(nc3ccccc13)CCCC2)NCc1ccco1	-6.44% (inactive)
O=C(CSc1c2c(nc3ccc(Cl)cc13)CCCC2)N1CCCCC1	-5.3% (inactive)
COCCN(Cc1ccco1)C(=O)CSc1c2c(nc3cc(Cl)ccc13)CCCC2	-8.9% (inactive)
CC(Sc1c2c(nc3ccc(Cl)cc13)CCCC2)C(=O)NCc1ccco1 (stereo not given)	-3.71% (inactive)
O=C(CSc1c2c(nc3ccc(Cl)cc13)CCCC2)NC1CC1	-2.74% (inactive)
O=C(CSc1ccc2ccccc2n1)NCc1ccco1	-3.39% (inactive)
Cc1ccc2nc(Cl)cc(SCC(=O)NCc3ccco3)c2c1	-11.1% (inactive)
O=C(CSc1c2c(nc3ccc(Cl)cc13)CCCC2)NCC1(c2ccccc2)CCCC1	-8.09% (inactive)
Cn1c(=O)cc(SCC(=O)NCc2ccco2)c2ccccc21	0.641% (inactive)
CCCCOc1ccc(NC(=O)COc2ccccc2C(=O)NCCOc2ccccc2)cc1	-30.8% (inactive)
O=C(COc1ccc(C(=O)NCC2CCCO2)cc1)Nc1cccc(C(F)(F)F)c1 (stereo not given)	-6.65% (inactive)
CCOC(=O)N1CCC(NC(=O)CSc2c3c(nc4ccc(Cl)cc24)CCCC3)CC1	-0.517% (inactive)
CC(C)NC(=O)CSc1c2c(nc3ccc(Cl)cc13)CCCC2	-3.4% (inactive)
O=C(CSc1c2c(nc3ccc(Cl)cc13)CCCC2)NCC1CCCO1 (stereo not given)	-12.2% (inactive)
Cc1cccc(NC(=O)CSc2c3c(nc4ccc(Cl)cc24)CCCC3)n1	-9.51% (inactive)
CCOC(=O)C1CCN(C(=O)c2ccc(OCC(=O)Nc3ccc(OCC)cc3)c(OC)c2)CC1	-2.45% (inactive)
Cc1ccc(CNC(=O)CSc2c3c(nc4ccc(Cl)cc24)CCCC3)o1	-8.3% (inactive)
O=C(CSc1c2c(nc3ccc(Cl)cc13)CCCC2)NCc1cccs1	-5.31% (inactive)
O=C(CSc1c2c(nc3ccc(Cl)cc13)CCCC2)NC1CCN(Cc2ccccc2)CC1	-3.75% (inactive)
O=C(CSc1c2c(nc3ccc(Cl)cc13)CCCC2)NCCCc1ccccc1	-6.44% (inactive)
CN(CCNC(=O)CSc1c2c(nc3ccc(Cl)cc13)CCCC2)Cc1ccccc1	-3.21% (inactive)

System: HEK293T viability, ATP luminescence (CellTiter-Glo), 72 h
Assay: as above
Conditions: not given

SMILES	AC50
O=C(CSc1c2c(nc3ccc(Cl)cc13)CCCC2)Nc1ccc(Cl)cc1	> 52 µM (inactive)
O=C(CSc1c2c(nc3ccc(Cl)cc13)CCCC2)N1CCN(Cc2ccccc2)CC1	> 52 µM (inactive)
CCN(CC)CCCNC(=O)c1ccc(OCC(=O)Nc2ccccc2C(F)(F)F)c(OC)c1	> 52 µM (inactive)
COc1cc(CNCCCN2CCOCC2)ccc1OCC(=O)Nc1cccc(C(F)(F)F)c1	> 52 µM (inactive)
CN(C(=O)COc1ccccc1C(=O)NCCc1ccccc1)c1ccccc1	> 52 µM (inactive)
O=C(COc1ccc(C(=O)NC2CCCCC2)cc1)Nc1cccc(C(F)(F)F)c1	> 52 µM (inactive)
